Our source for the IC50 and LD50 values is patent publication US5446058A, “(Fused) benz(thio)amides” (Ono Pharmaceutical Co., Ltd., priority 1984, dated 1995).

The subject of the first series is LTD4. Briefly: Antagonistic activity on LTD4 in vitro (contraction of isolated ilem in a Magnus tube). To be noted: antagonism of LTD4, guinea pig ilem, 5×10^-9 g/ml LTD4, 37° C.; read-out: IC50 (Table III, comparison of activity by alkylene chain change). As for the experimental part: Antagonistic activity of the compounds of the present invention on LTD4 were measured by the following method.
A segment of ilem (2.5 cm) was removed from guinea pig 300-400 g and suspended in a Magnus tube containing Tyrodes solution. The tube was maintained at 37° C. and aerated with 95% O2 -5% CO2. After stabilizing from 30 mins, 5×10^-9 g/ml of LTD4 was added to the Magnus tube. Contraction length at the time and contraction lengths when the compounds of the present invention were challenged at some concentrations were measured, and the IC50 value were calculated.
Take `CCCCCc1ccc(CC(=O)Nc2cccc3c2OC(c2nn[nH]n2)CO3)cc1` (centres unmarked): the concentration for half-maximal inhibition (IC50) came to 8.3 µM. With `CCCCCc1ccc(CCC(=O)Nc2cccc3c2OC(c2nn[nH]n2)CO3)cc1` (centres unmarked), the IC50 was determined as 0.66 µM.

`CCCc1ccc(/C=C/C=C/C(=O)Nc2cccc3c2OC(c2nn[nH]n2)CO3)cc1` (centres unmarked): the IC50 turned out to be 0.074 µM.

Turning to `CCCCCCCCCCCCC/C=C/C(=O)Nc1cccc2c1OC(c1nn[nH]n1)CO2` (centres unmarked), the IC50 came to 20 µM. The same measure, in the same setting: the result for `CCCCCc1ccc(C(=O)Nc2cccc3c2OC(c2nn[nH]n2)CO3)cc1` (centres unmarked) [drawing 40] reads 2.6 µM.

The same series, now with this note: antagonism of LTD4, guinea pig ilem, 5×10^-9 g/ml LTD4, 37° C.; read-out: IC50 (Table IV, comparison of activity by skeleton structure change (1)).
For the compound `CCCCCc1ccc(/C=C/C(=O)Nc2cccc3c2OC(c2nn[nH]n2)CO3)cc1` (centres unmarked), the half-maximal inhibitory concentration (IC50) came out at 0.37 µM. Regarding `CCCCCc1ccc(/C=C/C(=O)Nc2cccc3c(=O)cc(-c4nn[nH]n4)oc23)cc1`, the 50% inhibitory concentration (IC50) was 0.03 µM. For the compound `CCCCCc1ccc(/C=C/C(=O)Nc2cccc3c2SC(c2nn[nH]n2)CS3)cc1` (centres unmarked), the IC50 worked out at 0.69 µM.

Still in this series, the particulars now being: antagonism of LTD4, guinea pig ilem, 5×10^-9 g/ml LTD4, 37° C.; read-out: IC50 (Table V, comparison of activity by skeleton structure change (2)).
For `CCCCCc1ccc(C(=O)Nc2cccc3c(=O)cc(-c4nn[nH]n4)oc23)cc1`, the 50% inhibitory concentration (IC50) worked out at 0.18 µM. Same read-out and setting: the result for `CCCCCc1ccc(C(=O)Nc2cccc3c2OC(C(=O)O)CO3)cc1` (centres unmarked) reads 1.2 µM; that for `CCCCCc1ccc(C(=O)Nc2cccc3c2OC(c2nn[nH]n2)CO3)cc1` (centres unmarked) [drawing 49], 2.6 µM.

The same series, now with this note: antagonism of LTD4, guinea pig ilem, 5×10^-9 g/ml LTD4, 37° C.; read-out: IC50 (Table VI, comparison of activity by skeleton structure change (3)).
On to `CCCCCCOc1ccc(C(=O)Nc2cccc3cc(-c4nn[nH]n4)oc23)cc1` [1 (501)], for which the IC50 is 0.076 µM. On the same count and under the same terms, as for `CCCCCCOc1ccc(C(=O)Nc2cccc3c2OC(c2nn[nH]n2)C3)cc1` (centres unmarked) [1 (505)], the figure is 0.205 µM; as for `O=C(Nc1cccc2ccc(-c3nn[nH]n3)cc12)c1ccc(OCCCCc2ccccc2)cc1` [1 (514)], 0.0046 µM; as for `O=C(Nc1cccc2ccc(-c3nn[nH]n3)nc12)c1ccc(OCCCCc2ccccc2)cc1` [1 (516)], 0.0026 µM.

On to `C=CCCCC=CCOc1ccc(C(=O)Nc2cccc3c2OC(c2nn[nH]n2)CCO3)cc1` (centres unmarked) [1 (518)], for which the IC50 turned out to be 0.033 µM. For `O=C(Nc1cccc2c1OC(c1nn[nH]n1)CC2)c1ccc(OCCCCc2ccccc2)cc1` (centres unmarked) [1 (521)], the concentration for half-maximal inhibition (IC50) was 0.0013 µM.

For the next series, the target named is 5α-reductase. Briefly: Inhibitory activity on 5α-reductase in vitro. To be noted: [4-14C]testosterone 5 μM, NADPH 5×10^-3 M, pH 7.4, 37° C., 60 mins; read-out: IC50, inhibitory activity on 5α-reductase (Table VII). In kind it is biochemical. The method, then: Inhibitory activity of the compounds of the present invention on 5α-reductase was measured by the following method.
Inhibitory activity of the compounds of the present invention on 5α-reductase (IC50) in vitro was measured by the following method.
Compounds tested were incubated with radioactive [4-^14 C]testosterone (5 μM) and NADPH (5×10^-3 M) in the medium containing 5α-reductase, 0.09M Hepes (pH 7.4) and 0.22M sucrose at 37° C. for 60 mins. The reaction was stopped by adding solution of chloroform-methanol (1:2). The reaction mixture was centrifuged and the supernatant was separated by thin layer chromatography on silica gel using chloroform-methanol-acetic acid (99.2:0.6:0.2) as a developing solvent. Radioactivity of formed 5α-dihydrotestosterone was measured by TLC scanner. The values of IC50 were determined by the inhibition percents of 5α-reductase activity measured by the above procedure (see Endocrinal, Japon., 18, 179 (1971).).
In the case of `CCCCCc1ccc(C(C)=CC(=O)Nc2ccccc2SCCCC(=O)O)cc1` [4(206)], the IC50 was 4 µM. Same read-out and setting: the result for `CCCCCc1ccc(C=CC(=O)Nc2ccccc2OCCCC(=O)O)cc1` [6(1)] reads 5 µM.

System in another series: not listed separately
Briefly: Acute toxicity (LD50), intravenous, male mice. To be noted: mouse, in vivo, intravenous administration.
With `O=C(Nc1cccc2c1OC(c1nnn[nH]1)CO2)c1ccc(OCCCCc2ccccc2)cc1` (centres unmarked) [1(76)], the LD50 is > 1000 mg/kg. For the compound `C=CCCC/C=C/COc1ccc(C(=O)Nc2cccc3c(=O)cc(-c4nn[nH]n4)oc23)cc1` [1(212)], the LD50 is > 1000 mg/kg. `O=C(Nc1cccc2c(=O)cc(-c3nnn[nH]3)oc12)c1ccc(OCCCCc2ccccc2)cc1` [1(230)]: the LD50 is > 1000 mg/kg. Same read-out and setting: the result for `C=CCCC/C=C/COc1ccc(C(=O)Nc2cc(C)cc3c(=O)cc(-c4nn[nH]n4)oc23)cc1` [1(247)] reads > 1000 mg/kg.
